# Experimental data reported in US9624229B2, “Pyrimidine-2-amine compounds and their use as inhibitors of JAK kinases” (Rigel Pharmaceuticals, Inc., priority 2008, dated 2017).
# Target: Ba/F3 V617F cells (Homo sapiens, UniProt O60674, V617F, cells depend on it)
# Test: Proliferation assay (Cell Titer-Glo, 72 h) utilizing Ba/F3 V617F cells
# Format: cell-based, mouse
# Conditions: Ba/F3 V617F cells, proliferation, level of activity to inhibit JAK2, read-out: IC50 (the source's name)
# Procedure, shortened: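 Ba/F3 V617F cells in RPMI/10% FBS, 1×10^5 cells/mL, exposed in duplicate to 3-fold serial compound dilutions (top 5 mM DMSO stock, diluted 1:250, added as 2× solution in 5% FBS medium) for 72 h at 37 °C. Viability by Cell Titer-Glo luminescence; IC50 reported.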
# Chain of Ba/F3 V617F cells (O60674 whole entry V617F): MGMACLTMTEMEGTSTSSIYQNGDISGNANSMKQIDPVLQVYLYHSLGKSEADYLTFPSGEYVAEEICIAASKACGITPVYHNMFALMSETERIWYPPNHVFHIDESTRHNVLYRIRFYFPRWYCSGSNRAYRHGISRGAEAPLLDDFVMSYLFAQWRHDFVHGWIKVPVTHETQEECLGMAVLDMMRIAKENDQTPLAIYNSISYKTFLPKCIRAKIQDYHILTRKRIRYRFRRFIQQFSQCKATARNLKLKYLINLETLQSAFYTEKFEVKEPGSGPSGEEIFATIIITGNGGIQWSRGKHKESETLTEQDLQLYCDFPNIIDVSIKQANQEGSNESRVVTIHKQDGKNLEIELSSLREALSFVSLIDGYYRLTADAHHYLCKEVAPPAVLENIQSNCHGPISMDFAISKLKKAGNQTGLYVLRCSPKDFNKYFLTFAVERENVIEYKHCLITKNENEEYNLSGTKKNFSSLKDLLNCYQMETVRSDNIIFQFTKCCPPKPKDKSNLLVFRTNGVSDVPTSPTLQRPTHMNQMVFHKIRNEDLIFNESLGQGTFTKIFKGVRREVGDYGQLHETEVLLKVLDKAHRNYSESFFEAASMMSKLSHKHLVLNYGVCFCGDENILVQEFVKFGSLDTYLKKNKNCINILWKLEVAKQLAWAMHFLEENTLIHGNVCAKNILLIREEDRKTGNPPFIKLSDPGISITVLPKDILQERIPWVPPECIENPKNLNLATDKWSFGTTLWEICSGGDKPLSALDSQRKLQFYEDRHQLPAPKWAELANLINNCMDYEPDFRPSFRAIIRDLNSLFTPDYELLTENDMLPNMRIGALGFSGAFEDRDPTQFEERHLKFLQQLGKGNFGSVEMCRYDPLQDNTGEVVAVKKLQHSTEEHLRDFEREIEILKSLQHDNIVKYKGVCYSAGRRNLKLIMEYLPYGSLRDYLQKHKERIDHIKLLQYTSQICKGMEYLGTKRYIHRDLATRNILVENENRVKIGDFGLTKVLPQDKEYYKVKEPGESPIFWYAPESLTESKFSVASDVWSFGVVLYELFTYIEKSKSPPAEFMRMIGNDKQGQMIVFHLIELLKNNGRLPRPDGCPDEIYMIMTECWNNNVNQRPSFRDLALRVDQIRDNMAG
row,SMILES,GI50
1,"Cc1cc(Nc2nccc(-c3ccc(C#N)nc3)n2)ccc1N1C[C@@H]2C[C@H]1CN2C [compound 111, 4-(6-cyanopyridin-3-yl)-N-(3-methyl-4-((1S,4S)-5-methyl-2,5-diazabicyclo[2.2.1]heptan-2-yl)phenyl)pyrimidin-2-amine]",1000 to 10000 nM
2,"Cc1cc(Nc2nccc(-c3ccc(C#N)nc3)n2)ccc1N1C2CCC1CC2 [compound 112, 4-(6-cyanopyridin-3-yl)-N-(3-methyl-4-(7-azabicyclo[2.2.1]heptan-7-yl)phenyl)pyrimidin-2-amine]",1000 to 10000 nM
3,"Cc1cc(Nc2nccc(-c3ccc4c(c3)CC(=O)N4)n2)ccc1N1C[C@@H]2C[C@H]1CN2C [compound 113, 4-(2-oxoindolin-5-yl)-N-(3-methyl-4((1S,4S)-5-methyl-2,5-diazabicyclo[2.2.1]heptan-2-yl)phenyl)pyrimidin-2-amine]",< 1000 nM
4,"Cc1cc(Nc2nccc(-c3cncc(C#N)c3)n2)ccc1N1C[C@@H]2C[C@H]1CN2C [compound 114, 4-(5-cyanopyridin-3-yl)-N-(3-methyl-4((1S,4S)-5-methyl-2,5-diazabicyclo[2.2.1]heptan-2-yl)phenyl)pyrimidin-2-amine]",1000 to 10000 nM
5,"Cc1cc(Nc2nccc(-c3ccc(-c4nnn[nH]4)nc3)n2)ccc1N1C[C@@H]2C[C@H]1CN2C [compound 115, 4-(6-(1H-tetrazol-5-yl)pyridin-3-yl)-N-(3-methyl-4((1S,4S)-5-methyl-2,5-diazabicyclo[2.2.1]heptan-2-yl)phenyl)pyrimidin-2-amine]",10000 to 20000 nM
6,"CC(=O)N1C[C@@H]2C[C@H]1CN2c1ccc(Nc2nccc(-c3ccc(N4CCOCC4)nc3)n2)cc1C#N [compound 116, 4-(6-(morpholin-4-yl)pyridin-3-yl)-N-(3-cyano-4-((1S,4S)-5-acetyl-2,5-diazabicyclo[2.2.1]heptan-2-yl)phenyl)pyrimidin-2-amine]",< 1000 nM
7,"CS(=O)(=O)N1C[C@@H]2C[C@H]1CN2c1ccc(Nc2nccc(-c3ccc(N4CCOCC4)nc3)n2)cc1C#N [compound 117, 4-(6-(morpholin-4-yl)pyridin-3-yl)-N-(3-cyano-4-((1S,4S)-5-methylsulfonyl-2,5-diazabicyclo[2.2.1]heptan-2-yl)phenyl)pyrimidin-2-amine]",< 1000 nM
8,"CN1C[C@@H]2C[C@H]1CN2c1ccc(Nc2nccc(-c3ccc(N4CCOCC4)nc3)n2)cc1C#N [compound 118, 4-(6-(morpholin-4-yl)pyridin-3-yl)-N-(3-cyano-4-((1S,4S)-5-methyl-2,5-diazabicyclo[2.2.1]heptan-2-yl)phenyl)pyrimidin-2-amine]",< 1000 nM
9,"N#Cc1cc(Nc2nccc(-c3ccc(N4CCOCC4)nc3)n2)ccc1N1C[C@@H]2C[C@H]1CN2C1CCCC1 [compound 119, 4-(6-(morpholin-4-yl)pyridin-3-yl)-N-(3-cyano-4-((1S,4S)-5-cyclopentyl-2,5-diazabicyclo[2.2.1]heptan-2-yl)phenyl)pyrimidin-2-amine]",< 1000 nM
10,"Cc1cc(Nc2nccc(-c3ccc(N4CCOCC4)nc3)n2)ccc1N1CCN2CCC1C2 (centres unmarked) [compound 120, 4-(6-(morpholin-4-yl)pyridin-3-yl)-N-(3-methyl-4-(1,4-diazabicyclo[3.2.1]octan-4-yl)phenyl)pyrimidin-2-amine]",< 1000 nM
11,"Cc1cc(Nc2nccc(-c3ccc4c(c3)CC(=O)N4)n2)ccc1N1CCN2CCC1C2 (centres unmarked) [compound 121, 4-(2-oxoindolin-5-yl)-N-(3-methyl-4-(1,4-diazabicyclo[3.2.1]octan-4-yl)phenyl)pyrimidin-2-amine]",< 1000 nM
12,"Cc1cc(Nc2nccc(-c3ccc4ncn(C)c4c3)n2)ccc1N1CCN2CCC1C2 (centres unmarked) [compound 122, (1-methylbenzimidazol-6-yl)-N-(3-methyl-4-(1,4-diazabicyclo[3.2.1]octan-4-yl)phenyl)pyrimidin-2-amine]",< 1000 nM
13,"Cc1cc(Nc2nccc(-c3ccc4nccn4c3)n2)ccc1N1CCN2CCC1C2 (centres unmarked) [compound 123, 4-(imidazo[1,2-a]pyridin-6-yl)-N-(3-methyl-4-(1,4-diazabicyclo[3.2.1]octan-4-yl)phenyl)pyrimidin-2-amine]",< 1000 nM
14,"CN1C[C@@H]2C[C@H]1CN2c1ccc(Nc2nccc(-c3ccc4c(c3)NC(=O)CO4)n2)cc1F [compound 124, 4-(2H-benzo[b][1,4]oxazin-3(4H)-on-6-yl)-N-(3-fluoro-4-((1S,4S)-5-methyl-2,5-diazabicyclo[2.2.1]heptan-2-yl)phenyl)pyrimidin-2-amine]",< 1000 nM
15,"Cc1cc(Nc2nccc(-c3cnc4c(c3)OC(C)(C)C(=O)N4C)n2)ccc1N1C[C@@H]2C[C@H]1CN2C [compound 125, 4-(2,2,4-trimethyl-3-oxo-3,4-dihydro-2H-pyrido[3,2-b][1,4]oxazin-7-yl)-N-(3-methyl-4-((1S,4S)-5-methyl-2,5-diazabicyclo[2.2.1]heptan-2-yl)phenyl)pyrimidin-2-amine]",< 1000 nM
16,"CN1C(=O)C(C)(C)Oc2cc(-c3ccnc(Nc4ccc(N5C[C@@H]6C[C@H]5CN6C)c(F)c4)n3)cnc21 [compound 126, 4-(2,2,4-trimethyl-3-oxo-3,4-dihydro-2H-pyrido[3,2-b][1,4]oxazin-7-yl)-N-(3-fluoro-4-((1S,4S)-5-methyl-2,5-diazabicyclo[2.2.1]heptan-2-yl)phenyl)pyrimidin-2-amine]",< 1000 nM
17,"CC1CCCN(c2cnc(-c3ccnc(Nc4ccc(N5C[C@@H]6C[C@H]5CN6C)c(F)c4)n3)cn2)C1 (stereo partly drawn) [compound 127, 4-(5-(3-methylpiperidin-1-yl)pyrazin-2-yl)-N-(3-fluoro-4-((1S,4S)-5-methyl-2,5-diazabicyclo[2.2.1]heptan-2-yl)phenyl)pyrimidin-2-amine]",1000 to 10000 nM
18,"CN1C[C@@H]2C[C@H]1CN2c1ccc(Nc2nccc(-c3ccc(NC(=O)C(C)(C)C)cc3)n2)cc1F [compound 128, 4-(4-(t-butylcarbonylamino)phenyl)-N-(3-fluoro-4-((1S,4S)-5-methyl-2,5-diazabicyclo[2.2.1]heptan-2-yl)phenyl)pyrimidin-2-amine]",< 1000 nM
19,"Cc1cc(Nc2nccc(-c3ccc(NC(=O)C(C)(C)C)cc3)n2)ccc1N1C[C@@H]2C[C@H]1CN2C [compound 129, 4-(4-(t-butylcarbonylamino)phenyl)-N-(3-methyl-4-((1S,4S)-5-methyl-2,5-diazabicyclo[2.2.1]heptan-2-yl)phenyl)pyrimidin-2-amine]",< 1000 nM
20,"Cc1cc(Nc2nccc(-c3cnc4c(c3)OC(C)(C)C(=O)N4)n2)ccc1N1C[C@@H]2C[C@H]1CN2C [compound 130, 4-(2,2-dimethyl-3-oxo-3,4-dihydro-2H-pyrido[3,2-b][1,4]oxazin-7-yl)-N-(3-methyl-4-((1S,4S)-5-methyl-2,5-diazabicyclo[2.2.1]heptan-2-yl)phenyl)pyrimidin-2-amine]",< 1000 nM
21,"CC(=O)Nc1ccc(-c2ccnc(Nc3ccc(N4C[C@@H]5C[C@H]4CN5C)c(C)c3)n2)cn1 [compound 132, 4-(6-(acetamido)pyridin-3-yl)-N-(3-methyl-4-((1S,4S)-5-methyl-2,5-diazabicyclo[2.2.1]heptan-2-yl)phenyl)pyrimidin-2-amine]",< 1000 nM
22,"CN1C[C@@H]2C[C@H]1CN2c1ccc(Nc2nccc(-c3ccc(C(=O)Nc4ccccn4)cc3)n2)cc1F [compound 133, 4-(4-((pyridin-2-yl)aminocarbonyl)phenyl)-N-(3-fluoro-4-((1S,4S)-5-methyl-2,5-diazabicyclo[2.2.1]heptan-2-yl)phenyl)pyrimidin-2-amine]",1000 to 10000 nM
23,"Cc1cc(Nc2nccc(-c3ccc(C(=O)Nc4ccccn4)cc3)n2)ccc1N1C[C@@H]2C[C@H]1CN2C [compound 134, 4-(4-((pyridin-2-yl)aminocarbonyl)phenyl)-N-(3-methyl-4-((1S,4S)-5-methyl-2,5-diazabicyclo[2.2.1]heptan-2-yl)phenyl)pyrimidin-2-amine]",< 1000 nM
24,"CN1C[C@@H]2C[C@H]1CN2c1ccc(Nc2nccc(-c3ccc(NS(C)(=O)=O)cc3)n2)cc1F [compound 135, 4-(4-(methylsulfonylamino)phenyl)-N-(3-fluoro-4-((1S,4S)-5-methyl-2,5-diazabicyclo[2.2.1]heptan-2-yl)phenyl)pyrimidin-2-amine]",< 1000 nM
25,"Cc1cc(Nc2nccc(-c3ccc(NS(C)(=O)=O)cc3)n2)ccc1N1C[C@@H]2C[C@H]1CN2C [compound 136, 4-(4-(methylsulfonylamino)phenyl)-N-(3-methyl-4-((1S,4S)-5-methyl-2,5-diazabicyclo[2.2.1]heptan-2-yl)phenyl)pyrimidin-2-amine]",< 1000 nM
26,"CN1C[C@@H]2C[C@H]1CN2c1ccc(Nc2nccc(-c3cnc4c(c3)OC(C)(C)C(=O)N4)n2)cc1 [compound 137, 4-(2,2-dimethyl-3-oxo-3,4-dihydro-2H-pyrido[3,2-b][1,4]oxazin-7-yl)-N-(4-((1S,4S)-5-methyl-2,5-diazabicyclo[2.2.1]heptan-2-yl)phenyl)pyrimidin-2-amine]",< 1000 nM
27,"CN1C[C@@H]2C[C@H]1CN2c1ccc(Nc2nccc(-c3ccc(NC(=O)NC4CC4)cc3)n2)cc1 [compound 139, 4-(4-(3-cyclopropylureido)phenyl)-N-(4-((1S,4S)-5-methyl-2,5-diazabicyclo[2.2.1]heptan-2-yl)phenyl)pyrimidin-2-amine]",< 1000 nM

# Same assay, conditions: inhibition of JAK2 activity, proliferation of Ba/F3 V617F cells, read-out: IC50 (the source's name)
row,SMILES,GI50
1,"Cc1cc(Nc2nccc(-c3ccc(NC(=O)C(C)(C)C)cc3)n2)cnc1N1C[C@@H]2C[C@H]1CN2C [compound 131, 4-(4-(t-butylcarbonylamino)phenyl)-N-(5-methyl-6-((1S,4S)-5-methyl-2,5-diazabicyclo[2.2.1]heptan-2-yl)pyridin-3-yl)pyrimidin-2-amine]",< 1000 nM
2,"Cc1cc(Nc2nccc(-c3cnc4c(c3)OC(C)(C)C(=O)N4)n2)cnc1N1C[C@@H]2C[C@H]1CN2C [compound 138, 4-(2,2-dimethyl-3-oxo-3,4-dihydro-2H-pyrido[3,2-b][1,4]oxazin-7-yl)-N-(5-methyl-6-((1S,4S)-5-methyl-2,5-diazabicyclo[2.2.1]heptan-2-yl)pyridin-3-yl)pyrimidin-2-amine]",< 1000 nM
